Laboratory results from ChEMBL document CHEMBL4311959, “Discovery of a potent p38α/MAPK14 kinase inhibitor: Synthesis, in vitro/in vivo biological evaluation, and docking studies” (Eur J Med Chem, 2019).

Key:
[1] = target: T1, Mitogen-activated protein kinase 14 (Homo sapiens, UniProt Q16539); test: Inhibition of human p38alpha using MBP as substrate by [gamma-33P]-ATP assay
[2] = target: T1, Mitogen-activated protein kinase 14; test: Inhibition of p38alpha (unknown origin)
[3] = Stability in human plasma assessed as remaining compound at 10 uM incubated for 30 mins by LC-MS analysis; assay type: ADME, cell-free; settings: read-out: Stability
[4] = Stability in human plasma assessed as remaining compound at 10 uM incubated for 120 mins by LC-MS analysis; assay type: ADME, cell-free; settings: read-out: Stability
[5] = Stability in rat plasma assessed as remaining compound at 10 uM incubated for 30 mins by LC-MS analysis; assay type: ADME, cell-free; settings: read-out: Stability
[6] = Stability in rat plasma assessed as remaining compound at 10 uM incubated for 120 mins by LC-MS analysis; assay type: ADME, cell-free; settings: read-out: Stability
[7] = system: Rattus norvegicus; test: Antiinflammatory activity in Sprague-Dawley rat assessed as inhibition of carrageenan-induced paw edema at 50 mg/kg, ip administered 1 hr before carrageenan stimulation and measured after 3 hrs relative to control; assay type: functional
[8] = target: T1, Mitogen-activated protein kinase 14; test: Inhibition of recombinant Nanoluc-tagged p38alpha (unknown origin) expressed in HEK293 cells incubated for 2 to 3 mins by NanoBRET assay; assay type: cell-based
[9] = target: PI3-kinase p110-alpha/p85-alpha (Homo sapiens) (UniProt P27986+P42336); test: Inhibition of human PI3K (p110alpha/p85alpha) at 10 uM using PI as substrate by ADP-Glo Assay relative to control; assay type: protein-complex assay
[10] = target: Platelet-derived growth factor receptor beta (Homo sapiens) (UniProt P09619); test: Inhibition of human PDGFRbeta at 10 uM using poly[Glu:Tyr] (4:1) as substrate by [gamma-33P]-ATP assay relative to control
[11] = target: Mitogen-activated protein kinase 8 (Homo sapiens) (UniProt P45983); test: Inhibition of human JNK1 at 10 uM using ATF2 as substrate by [gamma-33P]-ATP assay relative to control
Sequence of Mitogen-activated protein kinase 8 (Homo sapiens) (P45983 whole entry): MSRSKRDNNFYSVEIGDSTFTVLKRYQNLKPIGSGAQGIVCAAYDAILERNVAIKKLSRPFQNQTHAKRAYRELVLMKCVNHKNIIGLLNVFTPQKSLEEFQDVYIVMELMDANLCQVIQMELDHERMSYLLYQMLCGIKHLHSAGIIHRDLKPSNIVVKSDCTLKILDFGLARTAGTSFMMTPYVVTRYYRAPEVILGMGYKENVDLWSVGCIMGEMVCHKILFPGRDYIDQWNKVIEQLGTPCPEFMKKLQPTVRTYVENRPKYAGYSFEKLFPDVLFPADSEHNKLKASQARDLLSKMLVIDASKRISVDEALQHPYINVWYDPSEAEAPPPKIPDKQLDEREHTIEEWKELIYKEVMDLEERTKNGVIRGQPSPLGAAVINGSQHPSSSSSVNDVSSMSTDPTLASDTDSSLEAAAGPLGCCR

[12] = target: Receptor tyrosine-protein kinase erbB-2 (Homo sapiens) (UniProt P04626); test: Inhibition of human ERBB2 at 10 uM using poly[Glu:Tyr] (4:1) as substrate by [gamma-33P]-ATP assay relative to control
Sequence of Receptor tyrosine-protein kinase erbB-2 (Homo sapiens) (P04626 whole entry): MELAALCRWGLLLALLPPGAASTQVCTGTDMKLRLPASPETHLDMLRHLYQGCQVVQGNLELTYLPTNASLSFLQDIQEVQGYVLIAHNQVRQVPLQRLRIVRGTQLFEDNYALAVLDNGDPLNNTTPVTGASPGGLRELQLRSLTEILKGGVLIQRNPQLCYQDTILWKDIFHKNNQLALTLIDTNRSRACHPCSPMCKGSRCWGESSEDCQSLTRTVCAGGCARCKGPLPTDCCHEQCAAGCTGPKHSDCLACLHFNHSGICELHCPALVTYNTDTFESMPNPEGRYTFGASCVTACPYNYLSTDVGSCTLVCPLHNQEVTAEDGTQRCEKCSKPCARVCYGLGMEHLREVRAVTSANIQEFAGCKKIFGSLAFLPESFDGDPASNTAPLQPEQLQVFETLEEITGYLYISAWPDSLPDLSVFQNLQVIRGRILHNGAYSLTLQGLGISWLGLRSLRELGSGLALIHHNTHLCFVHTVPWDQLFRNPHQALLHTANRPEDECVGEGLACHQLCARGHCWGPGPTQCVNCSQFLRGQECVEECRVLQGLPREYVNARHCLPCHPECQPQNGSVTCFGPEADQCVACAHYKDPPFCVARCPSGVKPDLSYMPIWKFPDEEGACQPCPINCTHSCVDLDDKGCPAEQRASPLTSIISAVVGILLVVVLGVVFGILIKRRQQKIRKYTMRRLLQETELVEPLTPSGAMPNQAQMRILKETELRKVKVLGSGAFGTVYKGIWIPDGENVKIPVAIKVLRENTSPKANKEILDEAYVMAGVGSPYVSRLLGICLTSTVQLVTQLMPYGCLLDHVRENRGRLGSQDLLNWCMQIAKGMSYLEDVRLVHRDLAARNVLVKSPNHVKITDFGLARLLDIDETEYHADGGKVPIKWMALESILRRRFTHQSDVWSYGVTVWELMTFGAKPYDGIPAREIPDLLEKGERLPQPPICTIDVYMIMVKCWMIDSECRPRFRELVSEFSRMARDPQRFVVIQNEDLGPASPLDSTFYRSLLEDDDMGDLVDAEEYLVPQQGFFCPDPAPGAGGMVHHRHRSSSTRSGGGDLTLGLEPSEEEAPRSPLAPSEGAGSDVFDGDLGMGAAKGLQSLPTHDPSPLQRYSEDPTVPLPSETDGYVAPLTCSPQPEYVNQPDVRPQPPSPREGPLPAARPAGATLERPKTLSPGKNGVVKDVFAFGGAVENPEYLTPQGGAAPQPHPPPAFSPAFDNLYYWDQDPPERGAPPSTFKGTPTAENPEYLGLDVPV

[13] = target: Receptor tyrosine-protein kinase erbB-4 (Homo sapiens) (UniProt Q15303); test: Inhibition of human ERBB4 at 10 uM using poly[Glu:Tyr] (4:1) as substrate by [gamma-33P]-ATP assay relative to control
[14] = target: Mitogen-activated protein kinase 1 (Homo sapiens) (UniProt P28482); test: Inhibition of human ERK2 at 10 uM using MBP as substrate by [gamma-33P]-ATP assay relative to control
[15] = target: Fibroblast growth factor receptor 1 (Homo sapiens) (UniProt P11362); test: Inhibition of human FGFR1 at 10 uM using KKKSPGEYVNIEFG as substrate by [gamma-33P]-ATP assay relative to control
[16] = target: Receptor-type tyrosine-protein kinase FLT3 (Homo sapiens) (UniProt P36888); test: Inhibition of human FLT3 at 10 uM using EAIYAAPFAKKK as substrate by [gamma-33P]-ATP assay relative to control
[17] = target: Macrophage colony-stimulating factor 1 receptor (Homo sapiens) (UniProt P07333); test: Inhibition of human FMS at 10 uM using poly[Glu:Tyr] (4:1) as substrate by [gamma-33P]-ATP assay relative to control
[18] = target: Tyrosine-protein kinase JAK1 (Homo sapiens) (UniProt P23458); test: Inhibition of human JAK1 at 10 uM using poly[Glu:Tyr] (4:1) as substrate by [gamma-33P]-ATP assay relative to control
[19] = target: Tyrosine-protein kinase JAK2 (Homo sapiens) (UniProt O60674); test: Inhibition of human JAK2 at 10 uM using poly[Glu:Tyr] (4:1) as substrate by [gamma-33P]-ATP assay relative to control
[20] = target: T1, Mitogen-activated protein kinase 14; test: Inhibition of human p38alpha at 10 uM using MBP as substrate by [gamma-33P]-ATP assay relative to control
[21] = target: Vascular endothelial growth factor receptor 2 (Homo sapiens) (UniProt P35968); test: Inhibition of human KDR at 10 uM using poly[Glu:Tyr] (4:1) as substrate by [gamma-33P]-ATP assay relative to control
[22] = target: Dual specificity mitogen-activated protein kinase kinase 1 (Homo sapiens) (UniProt Q02750); test: Inhibition of human MEK1 at 10 uM using ERK2 as substrate by [gamma-33P]-ATP assay relative to control
[23] = target: Serine/threonine-protein kinase B-raf (Homo sapiens) (UniProt P15056); test: Inhibition of human BRAF at 10 uM using MEK1 (K97R) as substrate by [gamma-33P]-ATP assay relative to control
[24] = system: Serine/threonine-protein kinase B-raf (Homo sapiens), P15056 [V600E]; test: Inhibition of human BRAF V600E mutant at 10 uM using MEK1 (K97R) as substrate by [gamma-33P]-ATP assay relative to control
[25] = target: Mast/stem cell growth factor receptor Kit (Homo sapiens) (UniProt P10721); test: Inhibition of human c-KIT at 10 uM using poly[Glu:Tyr] (4:1) as substrate by [gamma-33P]-ATP assay relative to control
[26] = target: Hepatocyte growth factor receptor (Homo sapiens, UniProt P08581); test: Inhibition of human c-MET at 10 uM using KKKSPGEYVNIEFG as substrate by [gamma-33P]-ATP assay relative to control
[27] = target: RAF proto-oncogene serine/threonine-protein kinase (Homo sapiens, UniProt P04049); test: Inhibition of human RAF1 at 10 uM using MEK1 (K97R) as substrate by [gamma-33P]-ATP assay relative to control
Sequence of RAF proto-oncogene serine/threonine-protein kinase (P04049 whole entry): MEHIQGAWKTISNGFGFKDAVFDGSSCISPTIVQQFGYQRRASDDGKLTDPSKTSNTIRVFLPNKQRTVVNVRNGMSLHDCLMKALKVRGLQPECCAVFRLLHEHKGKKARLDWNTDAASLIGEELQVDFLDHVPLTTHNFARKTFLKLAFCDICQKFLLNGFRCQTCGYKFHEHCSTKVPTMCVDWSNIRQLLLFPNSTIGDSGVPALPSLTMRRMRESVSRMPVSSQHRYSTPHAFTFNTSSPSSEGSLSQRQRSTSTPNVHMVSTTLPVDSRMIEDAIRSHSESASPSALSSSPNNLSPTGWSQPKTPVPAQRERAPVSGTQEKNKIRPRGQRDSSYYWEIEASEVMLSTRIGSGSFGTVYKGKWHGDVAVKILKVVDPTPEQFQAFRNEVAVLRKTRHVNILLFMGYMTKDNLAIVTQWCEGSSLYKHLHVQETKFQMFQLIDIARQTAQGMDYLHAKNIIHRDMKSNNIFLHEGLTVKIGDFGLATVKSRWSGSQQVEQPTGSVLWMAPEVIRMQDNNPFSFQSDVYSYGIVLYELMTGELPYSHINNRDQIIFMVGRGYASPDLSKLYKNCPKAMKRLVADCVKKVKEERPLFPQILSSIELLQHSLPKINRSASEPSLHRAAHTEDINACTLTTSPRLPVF

[28] = target: DNA-dependent protein kinase catalytic subunit (Homo sapiens) (UniProt P78527); test: Inhibition of human DNAPK at 10 uM using EPPLSQEAFADLWKK as substrate by […]-ATP assay relative to control
[29] = target: Epidermal growth factor receptor (Homo sapiens) (UniProt P00533); test: Inhibition of human EGFR at 10 uM using poly[Glu:Tyr] (4:1) as substrate by [gamma-33P]-ATP assay relative to control
Sequence of Epidermal growth factor receptor (Homo sapiens) (P00533 whole entry): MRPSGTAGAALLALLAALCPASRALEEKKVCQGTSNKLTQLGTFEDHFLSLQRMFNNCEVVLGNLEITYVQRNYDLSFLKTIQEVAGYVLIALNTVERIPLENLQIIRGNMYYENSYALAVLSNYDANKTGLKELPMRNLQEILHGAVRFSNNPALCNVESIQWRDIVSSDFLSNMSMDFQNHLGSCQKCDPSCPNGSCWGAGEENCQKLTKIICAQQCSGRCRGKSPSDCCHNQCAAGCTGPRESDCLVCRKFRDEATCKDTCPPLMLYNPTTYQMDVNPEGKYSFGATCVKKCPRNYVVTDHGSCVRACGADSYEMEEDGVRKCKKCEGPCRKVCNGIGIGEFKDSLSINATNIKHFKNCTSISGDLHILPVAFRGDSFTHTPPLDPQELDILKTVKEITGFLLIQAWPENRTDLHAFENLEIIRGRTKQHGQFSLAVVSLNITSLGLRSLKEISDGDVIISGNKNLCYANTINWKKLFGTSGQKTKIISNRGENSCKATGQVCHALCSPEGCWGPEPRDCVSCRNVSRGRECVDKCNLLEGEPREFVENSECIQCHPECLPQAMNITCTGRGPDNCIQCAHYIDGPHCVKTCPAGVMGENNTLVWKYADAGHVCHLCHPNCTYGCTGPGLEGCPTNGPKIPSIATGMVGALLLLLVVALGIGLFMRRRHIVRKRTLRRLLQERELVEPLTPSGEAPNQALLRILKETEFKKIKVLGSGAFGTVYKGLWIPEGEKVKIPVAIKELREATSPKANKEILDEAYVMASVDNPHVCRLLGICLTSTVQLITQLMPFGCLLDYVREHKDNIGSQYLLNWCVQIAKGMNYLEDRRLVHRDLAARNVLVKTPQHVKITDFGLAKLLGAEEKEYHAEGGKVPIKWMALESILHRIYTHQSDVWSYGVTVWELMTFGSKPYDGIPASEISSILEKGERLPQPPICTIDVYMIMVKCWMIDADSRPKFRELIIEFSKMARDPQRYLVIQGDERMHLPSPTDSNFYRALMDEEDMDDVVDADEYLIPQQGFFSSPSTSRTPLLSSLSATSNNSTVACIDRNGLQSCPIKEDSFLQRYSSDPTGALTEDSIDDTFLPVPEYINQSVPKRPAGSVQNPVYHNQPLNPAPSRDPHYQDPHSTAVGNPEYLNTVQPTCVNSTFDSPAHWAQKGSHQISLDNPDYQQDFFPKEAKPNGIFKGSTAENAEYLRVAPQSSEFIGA

[30] = target: Aurora kinase A (Homo sapiens) (UniProt O14965); test: Inhibition of human Aurora A at 10 uM using [H-LRRASLG] as substrate by [gamma-33P]-ATP assay relative to control
Sequence of Aurora kinase A (Homo sapiens) (O14965 whole entry): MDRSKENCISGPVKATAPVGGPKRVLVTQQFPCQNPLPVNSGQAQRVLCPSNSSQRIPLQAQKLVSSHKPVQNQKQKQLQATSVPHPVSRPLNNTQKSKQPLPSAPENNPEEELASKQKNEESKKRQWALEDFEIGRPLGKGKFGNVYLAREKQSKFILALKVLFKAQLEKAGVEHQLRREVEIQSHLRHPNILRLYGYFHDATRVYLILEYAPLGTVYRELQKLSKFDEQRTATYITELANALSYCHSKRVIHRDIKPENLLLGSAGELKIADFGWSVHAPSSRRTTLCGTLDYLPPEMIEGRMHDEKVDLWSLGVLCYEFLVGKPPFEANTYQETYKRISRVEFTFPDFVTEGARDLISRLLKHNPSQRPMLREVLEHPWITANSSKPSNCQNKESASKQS

[31] = target: ALK tyrosine kinase receptor (Homo sapiens) (UniProt Q9UM73); test: Inhibition of human ALK at 10 uM using poly[Glu:Tyr] (4:1) as substrate by [gamma-33P]-ATP assay relative to control
[32] = target: Serine/threonine-protein kinase A-Raf (Homo sapiens) (UniProt P10398); test: Inhibition of human ARAF at 10 uM using MEK1 as substrate by [gamma-33P]-ATP assay relative to control
Sequence of Serine/threonine-protein kinase A-Raf (Homo sapiens) (P10398 whole entry): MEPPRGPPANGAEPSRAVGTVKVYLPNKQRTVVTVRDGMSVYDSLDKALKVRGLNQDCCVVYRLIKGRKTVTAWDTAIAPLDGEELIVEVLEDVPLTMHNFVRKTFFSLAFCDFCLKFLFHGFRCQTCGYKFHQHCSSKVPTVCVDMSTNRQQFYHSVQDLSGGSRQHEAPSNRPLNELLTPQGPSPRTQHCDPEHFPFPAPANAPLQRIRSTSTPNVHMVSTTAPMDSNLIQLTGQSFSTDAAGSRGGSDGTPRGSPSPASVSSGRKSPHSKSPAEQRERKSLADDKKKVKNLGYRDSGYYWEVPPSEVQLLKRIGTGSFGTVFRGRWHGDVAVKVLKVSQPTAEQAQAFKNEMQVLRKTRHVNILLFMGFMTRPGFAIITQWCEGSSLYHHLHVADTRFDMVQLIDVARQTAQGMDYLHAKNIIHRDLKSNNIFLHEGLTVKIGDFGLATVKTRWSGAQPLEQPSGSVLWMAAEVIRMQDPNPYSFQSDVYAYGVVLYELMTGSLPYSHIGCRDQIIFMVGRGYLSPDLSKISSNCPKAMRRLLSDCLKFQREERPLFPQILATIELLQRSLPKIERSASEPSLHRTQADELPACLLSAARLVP

[33] = target: RAC-alpha serine/threonine-protein kinase (Homo sapiens) (UniProt P31749); test: Inhibition of human AKT1 at 10 uM using KGSGSGRPRTSSFAEG as substrate by [gamma-33P]-ATP assay relative to control
[34] = target: Tyrosine-protein kinase ABL1 (Homo sapiens) (UniProt P00519); test: Inhibition of human ABL1 at 10 uM using EAIYAAPFAKKK as substrate by [gamma-33P]-ATP assay relative to control
[35] = system: THP-1; test: Inhibition of LPS-induced TNFalpha production in human THP1 cells incubated for 1 hr followed by LPS stimulation and measured after 4 hrs by TR-FRET method; assay type: functional, cell-based

T1 sequence (Q16539 whole entry): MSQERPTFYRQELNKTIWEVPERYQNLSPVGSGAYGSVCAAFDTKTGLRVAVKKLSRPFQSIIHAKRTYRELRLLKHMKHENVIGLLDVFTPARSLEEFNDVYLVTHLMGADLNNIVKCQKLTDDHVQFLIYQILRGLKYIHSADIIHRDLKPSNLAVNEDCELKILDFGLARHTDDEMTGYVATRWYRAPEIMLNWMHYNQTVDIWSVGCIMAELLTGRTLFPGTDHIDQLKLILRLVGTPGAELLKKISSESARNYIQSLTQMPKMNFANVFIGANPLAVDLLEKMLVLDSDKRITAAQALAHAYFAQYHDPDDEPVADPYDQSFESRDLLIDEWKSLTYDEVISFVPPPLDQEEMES

COc1ccc(-c2nn(-c3cccc(NC(=O)Nc4ccc(Cl)c(C(F)(F)F)c4)c3)cc2-c2ccncc2)cc1Cl
IC50 [1]: 8.54 µM

COc1cccc(-c2nn(-c3ccccc3)cc2-c2ccncc2)c1
IC50 [2]: 0.515 µM

O=C(Nc1cccc(-n2cc(-c3ccncc3)c(-c3ccc(O)c(Cl)c3)n2)c1)Nc1ccc(Cl)c(C(F)(F)F)c1
IC50 [1]: > 30 µM

O=C(Nc1cccc(-n2cc(-c3ccncc3)c(-c3ccc(O)c(Cl)c3)n2)c1)c1cc(C(F)(F)F)cc(C(F)(F)F)c1
IC50 [1]: > 30 µM

O=C(Nc1cccc(-n2cc(-c3ccncc3)c(-c3ccc(O)c(Cl)c3)n2)c1)Nc1cc(C(F)(F)F)cc(C(F)(F)F)c1
IC50 [1]: > 30 µM

O=C(Nc1cccc(-n2cc(-c3ccncc3)c(-c3ccc(O)c(Cl)c3)n2)c1)c1cccc(C(F)(F)F)c1
IC50 [1]: > 30 µM

O=C(Nc1cccc(-n2cc(-c3ccncc3)c(-c3ccc(O)c(Cl)c3)n2)c1)Nc1ccc(Cl)c(Cl)c1
IC50 [1]: 14.4 µM

COc1ccc(-c2nn(-c3cccc(NC(=O)Nc4ccc(Cl)c(Cl)c4)c3)cc2-c2ccncc2)cc1Cl
IC50 [1]: 2.83 µM

O=C(Nc1cccc(-n2cc(-c3ccncc3)c(-c3ccc(O)c(Cl)c3)n2)c1)c1ccc(Cl)c(Cl)c1
IC50 [1]: 14.3 µM

COc1ccc(-c2nn(-c3cccc(NC(=O)c4ccc(Cl)c(Cl)c4)c3)cc2-c2ccncc2)cc1Cl
IC50 [1]: 1.29 µM

CCN(CC)CCOC(=O)c1ccc(N)cc1 [PROCAINE]
remaining at 0.5 h, 10 µM [3]: 1.2% | remaining at 2 h, 10 µM [4]: 0.2% | remaining at 0.5 h, 10 µM [5]: 89.9% | remaining at 2 h, 10 µM [6]: 42.7%

O=C(O)Cc1ccccc1Nc1c(Cl)cccc1Cl [DICLOFENAC]
inhibition in vivo at 50 mg/kg [7]: 71.3%

COc1ccc(-c2nn(-c3cccc(NC(=O)Nc4cc(C(F)(F)F)cc(C(F)(F)F)c4)c3)cc2-c2ccncc2)cc1Cl
EC50 [8]: 1.94 µM | IC50 [1]: 0.307 µM | inhibition [9]: 8.99% | inhibition [10]: -7.69% | inhibition [11]: 22.2% | inhibition [12]: 0.29% | inhibition [13]: 20.1% | inhibition [14]: -8.43% | inhibition [15]: 4.66% | inhibition [16]: -6.35% | inhibition [17]: 5.95% | inhibition [18]: 9% | inhibition [19]: -4.38% | inhibition [20]: 86.4% | inhibition [21]: 2.65% | inhibition [22]: -4.12% | inhibition [23]: 8.96% | inhibition [24]: 35.8% | inhibition [25]: 2.7% | inhibition [26]: 48.5% | inhibition [27]: 40.4% | inhibition [28]: 0.81% | inhibition [29]: 2.48% | inhibition [30]: -3.14% | inhibition [31]: -3.13% | inhibition [32]: 57% | inhibition [33]: 4.08% | inhibition [34]: -7.26%

O=C(Nc1cccc(-n2cc(-c3ccncc3)c(-c3ccc(O)c(Cl)c3)n2)c1)Nc1cccc(C(F)(F)F)c1
IC50 [1]: > 30 µM

O=C(Nc1ccccc1)Nc1cccc(-n2cc(-c3ccncc3)c(-c3ccc(O)c(Cl)c3)n2)c1
IC50 [1]: > 30 µM

COc1ccc(-c2nn(-c3cccc(NC(=O)Nc4ccccc4)c3)cc2-c2ccncc2)cc1Cl
IC50 [1]: 4 µM

C[S+]([O-])c1ccc(-c2nc(-c3ccc(F)cc3)c(-c3ccncc3)[nH]2)cc1 (stereo not given) [SB-203580]
IC50 [35]: 0.02 µM

COc1ccc([C@@H]2Sc3ccccc3N(CCN(C)C)C(=O)[C@@H]2OC(C)=O)cc1 [DILTIAZEM]
remaining at 0.5 h, 10 µM [3]: 91.5% | remaining at 2 h, 10 µM [4]: 89.3% | remaining at 0.5 h, 10 µM [5]: 86.3% | remaining at 2 h, 10 µM [6]: 45.4%

COc1ccc(-c2nn(-c3cccc(NC(=O)c4cc(C(F)(F)F)cc(C(F)(F)F)c4)c3)cc2-c2ccncc2)cc1Cl
IC50 [1]: 2.33 µM

COc1ccc(-c2nn(-c3cccc(NC(=O)c4ccc(N5CCOCC5)c(C(F)(F)F)c4)c3)cc2-c2ccncc2)cc1Cl
IC50 [1]: 6.07 µM

COc1ccc(-c2nn(-c3cccc(NC(=O)Nc4cccc(C(F)(F)F)c4)c3)cc2-c2ccncc2)cc1Cl
IC50 [1]: 12.2 µM

O=C(Nc1cccc(-n2cc(-c3ccncc3)c(-c3ccc(O)c(Cl)c3)n2)c1)c1ccc(N2CCOCC2)c(C(F)(F)F)c1
IC50 [1]: > 30 µM
